Where two headings read alike, the source gives them in different places.
Experiments:
[1] = Pharmacokinetic study of rivaroxaban in rats, alone and with ribociclib (UPLC-MS/MS plasma levels); type: in vivo, Sprague-Dawley rats; conditions: for CL/F: read-out: CLz/F (converted); for MRT inf: read-out: MRT0- ∞; for MRT last: read-out: MRT0-t; for Vd/F: read-out: Vz/F
Procedure: Experimental animals were randomly divided into nine groups (n = 6, Table 1). Ribociclib was suspended in methylcellulose (MC), rivaroxaban was prepared in hydroxypropyl methylcellulose (HPMC), and apixaban was suspended in 5% DMSO in water. To achieve steady-state blood concentrations, a drug typically requires five to seven half-lives. Based on this principle, ribociclib was administered orally for eight consecutive days, while rivaroxaban and apixaban were administered orally for five consecutive days to ensure steady-state concentrations were reached before further analysis.
Approximately 0.1 mL of blood was collected into heparinized tubes via the orbitalat specified time points before and after the final drug administration. For apixaban, blood samples were collected at 0, 0.083, 0.167, 0.25, 0.333, 0.5, 0.75, 1, 3, 5, 7, 10, and 12 h. For rivaroxaban, sampling was conducted at 0, 0.167, 0.333, 0.5, 0.75, 1.5, 2, 3, 4, 5, 6, 8, 10, 12, and 24 h. For ribociclib, samples were taken at 0, 0.5, 1, 2, 4, 5, 6, 8, 10, 12, 24, and 48 h. Blood samples were centrifuged at 3,500 rpm for 10 min, and the supernatant was collected and stored at −80°C until processing for UPLC-MS/MS.
Apixaban and rivaroxaban concentrations in plasma samples were determined using our previously established UPLC-MS/MS method ([Wang et al., 2023]). Ribociclib concentrations were quantified using an LC-30A UPLC system (Shimadzu, Kyoto, Japan) coupled with a Sciex Triple Quad 5500 tandem quadrupole mass spectrometer (AB Sciex, Framingham, MA, United States) equipped with an electrospray ionization interface. Chromatographic separation was performed using a Welch Boltimate column (2.1 mm × 100 mm, 2.7 μm) maintained at 40°C. The mobile phase was composed of water containing 0.1% formic acid (phase A) and acetonitrile (phase B). The flow rate was held constant at 0.3 mL/min. The gradient elution protocol was as follows: 0–2.5 min, 60% B; 2.5–3.5 min, 60%–90% B; 3.5–5.5 min, 90% B; 5.5–5.6 min, 90%–60% B; 5.6–6.6 min, 60% B. The injection volume was 1 μL.
Pharmacokinetic parameters were calculated based on a non-compartmental model using DAS 2.1.1 Software (Mathematical Pharmacology Professional Committee of China, Shanghai, China). The area under the concentration–time curve (AUC), maximum plasma concentration (Cmax), time to maximum plasma concentration (Tmax), the time required to eliminate half of the plasma drug concentration (t1/2), clearance of drug plasma volume per unit time (CLz/F), apparent volume distribution (Vz/F), mean residence time (MRT) and the absorption rate constant (Ka) are all expressed as mean ± standard deviation (SD). SPSS 25.0 statistical software (SPSS Inc., Chicago, IL, United States) was applied to statistically analyze the mainpharmacokinetic parameters. Shapiro-Wilk test was used to assess whether the data were normally distributed, t test was used for parameters conforming to the normal distribution, and Mann-Whitney U test was used for parameters not conforming to the normal distribution. Statistical comparisons were conducted using a analysis of variance, t-test or nonparametric rank-sum test depending on the data type. A P-value <0.05 was deemed statistically significant.

[2] = design: method as in Hindley et al., 2023; conditions: ref Hindley et al., 2023; cited from earlier work
[3] = RIVA 1 mg/kg + multiple doses of RIBO vs RIVA 2 mg/kg alone
[4] = RIVA 2 mg/kg (normal dose) + multiple doses of RIBO vs alone
[5] = RIVA 2 mg/kg + timed RIBO (12 h), RIBO 60 mg/kg for 8 days
[6] = RIVA 2 mg/kg after multiple doses of RIBO vs RIVA 2 mg/kg alone
[7] = RIVA 2 mg/kg with 12-h interval to RIBO vs RIVA 2 mg/kg alone
[8] = Sprague-Dawley, rat, plasma, po, 1 mg/kg, RIVA 1 mg/kg + RIBO 60 mg/kg for 8 days
[9] = Sprague-Dawley, rat, plasma, po, 2 mg/kg, RIVA 2 mg/kg + RIBO 60 mg/kg for 8 days
[10] = Sprague-Dawley, rat, plasma, po, 2 mg/kg, RIVA 2 mg/kg + timed RIBO (12 h), RIBO 60 mg/kg for 8 days
[11] = Sprague-Dawley, rat, plasma, po, 2 mg/kg, oral RIVA 2 mg/kg alone

O=C(NC[C@H]1CN(c2ccc(N3CCOCC3=O)cc2)C(=O)O1)c1ccc(Cl)s1 [RIVA, rivaroxaban]
decrease of CLz/F [1, 3]: 70.97%
decrease of Vz/F [1, 3]: 78.29%
difference in MRT0- ∞ [1, 3]: not statistically significant
difference in Tmax [1, 3]: not statistically significant
increase of AUC0- ∞ [1, 3]: 228.46%
increase of AUC0-t [1, 3]: 230.62%
increase of Cmax [1, 3]: 133.14%
increase of MRT0-t [1, 3]: 30.06%
increase of AUC0- ∞ [1, 4]: ~2.1 fold
increase of AUC0-t (AUC) [1, 4]: about 2.4 fold
increase of Cmax [1, 4]: 1.9 fold
Cmax ([1]; RIVA 2 mg/kg + RIBO 60 mg/kg for 8 days): 838.33 ± 480.92 ng/mL
AUC0- ∞ [1, 5]: 2,217.15 ± 800.81 μg/L*h
Cmax [1, 5]: 454.5 ± 214.88 ng/mL
Vz/F [1, 5]: 3.72 ± 1.98 L/kg
t1/2 [1, 5]: 2.65 ± 1.48 h
decrease of CLz/F [1, 6]: 65.81%
decrease of Vz/F [1, 6]: 82.91%
decrease of t1/2z [1, 6]: 57.09%
difference in MRT0- ∞ [1, 6]: not statistically significant
difference in Tmax [1, 6]: not statistically significant
increase of AUC0- ∞ [1, 6]: 213.79%
increase of AUC0-t [1, 6]: 240.19%
increase of Cmax [1, 6]: 186.93%
increase of MRT0-t [1, 6]: 21.39%
decrease of CLz/F [1, 7]: 34.84%
decrease of Vz/F [1, 7]: 62.61%
difference in Cmax [1, 7]: not statistically significant
difference in MRT0- ∞ [1, 7]: not statistically significant
difference in Tmax [1, 7]: not statistically significant
increase of AUC0- ∞ [1, 7]: 63.03%
increase of AUC0-t [1, 7]: 74.16%
increase of MRT0-t [1, 7]: 22.54%
Cmax ([1]; Sprague-Dawley, rat, plasma, oral RIVA 2 mg/kg alone, read-out: Cmax): 292 ± 67.5 ng/mL
AUC(0-inf) [1, 8]: 4470 ng·h/mL
AUC(0-t) [1, 8]: 3990 ± 445 ng·h/mL
Tmax [1, 8]: 1.92 ± 0.2 h
half-life [1, 8]: 3.34 ± 0.79 h
CL/F [1, 8]: 7.5 mL/min/kg
MRT inf [1, 8]: 5.84 ± 0.81 h
MRT last [1, 8]: 4.5 ± 0.25 h
Vd/F [1, 8]: 2.16 ± 0.04 L/kg
AUC(0-inf) [1, 9]: 4270 ng·h/mL
AUC(0-t) [1, 9]: 4100 ng·h/mL
Tmax [1, 9]: 2.83 ± 0.41 h
half-life [1, 9]: 2.15 ± 0.94 h
CL/F [1, 9]: 8.83 mL/min/kg
MRT inf [1, 9]: 4.74 ± 0.63 h
MRT last [1, 9]: 4.2 ± 0.63 h
Vd/F [1, 9]: 1.7 ± 0.99 L/kg
AUC(0-t) [1, 10]: 2100 ng·h/mL
Tmax [1, 10]: 3 ± 0.63 h
CL/F [1, 10]: 16.8 mL/min/kg
MRT inf [1, 10]: 4.93 ± 1.3 h
MRT last [1, 10]: 4.24 ± 0.69 h
AUC(0-inf) [1, 11]: 1360 ng·h/mL
AUC(0-t) [1, 11]: 1210 ng·h/mL
Tmax [1, 11]: 2.13 ± 0.83 h
half-life [1, 11]: 5.01 ± 3.3 h
CL/F [1, 11]: 25.8 mL/min/kg
MRT last [1, 11]: 3.46 ± 0.43 h
Vd/F [1, 11]: 9.95 ± 4.58 L/kg
Cmax ([1]; Sprague-Dawley, rat, plasma, po, RIVA 1 mg/kg + RIBO 60 mg/kg for 8 days, read-out: Cmax): 681 ± 75.5 ng/mL
AUC at 1 mg/kg versus AUC at 2 mg/kg ([1]; both with multiple doses of RIBO): not significantly different
MRT0- ∞ ([1]; oral RIVA 2 mg/kg alone): 5.31 ± 2.01 h
increase of Cmax ([1]; reduced RIVA 1 mg/kg + multiple doses of RIBO): 1.3 fold
plasma protein binding [2]: approximately 95%

Reference: paper PMC11994961, “In Vivo pharmacokinetic interactions of ribociclib with rivaroxaban and apixaban in rats: implications for increased drug exposure and dose adjustments” (Frontiers in Pharmacology, 2025)
